Counter-ions that a name gives are not always drawn. Like-named read-outs stand apart in the source and are kept apart here.
Legend:
physchem = settings: buffer, pH 7.3, aqueous buffer
Description: Solubility of propranolol hydrochloride in buffer solutions at 34° C. was investigated by shaking propranolol hydrochloride suspension in the solvent. After equilibration, the saturated solutions were filtered and the concentration of propranolol in the filtrates was assayed by HPLC as described above. […] Each experiment was repeated five times.

[1] = Dissolution rate of propranolol hydrochloride by rotating disc method; type: physicochemical; settings: 34° C., 550 mOsm, μ=0.3
Description: Each experiment was repeated five times.

[2] = membranes incubated at pH 7.4 or pH 9.0 propranolol hydrochloride solutions prior to device preparation
Description: The thickness of the membranes was 150 μm. Solid propranolol hydrochloride (2 mg) was placed without or with pH-adjusting additives (sodium phosphate/disodium phosphate in different proportions, Tris buffer) (2 mg) on a cut piece of silicone membrane. Another silicone membrane was glued on the former so that the drug and, if present, adjuvant were encapsulated inside two membranes.
Propranolol release from the devices was studied in vitro at pH 7.4 in phosphate buffer from one side of the device in side-by-side diffusion cell. The exposed drug releasing surface was 0.7 cm^2. The released propranolol was analysed using reverse phase HPLC at 254 nm.

[3] = Release of timolol from silicone microspheres (rotating bottle method); type: physicochemical; settings: for release of timolol from silicone microspheres after 1 hour: pH 7.4, 37° C., 100 mg microspheres
Description: In silicone microspheres, timolol maleate was used as a model drug and sodium phosphate and Tris buffer as release-controlling adjuvants. Spray-dried drug and adjuvants were either simply mixed as power mixtures or they were spray dried together. To prepare silicone microspheres, the drug (2-20 wt %) and, if present, pH-adjusting agent (0-10 wt %) were mixed with the silicone elastomer (an amine resistant Dow Corning X7-3012 elastomer), and the curing agent was added. One part of the curing agent is mixed in ten parts of the polymer. Vulcanization of the X7-3012 elastomers is based on a platinum catalyzed addition (hydrosilylation) reaction. Two grams of the drug-polymer mixture was dispersed in 35 grams of liquid paraffin using an overhead stirrer at 190 rpm and 22° C. The temperature was raised to 50° C. in 1 hour. After 3 hours, the heating was stopped, and the mixture gradually cooled back to 22° C. […] Microparticles were separated from paraffin by filtration, washed with n-hexane and dried at room temperature. The mean particle size of the microspheres was 150±50 μm (mean±SD) (FIG. 14) and the entrapment efficiency of timolol maleate was 60-75%. Release of timolol from the silicone microspheres was studied using the rotating bottle method (NF XIV) in pH 7.4 phosphate buffer at 37° C. The volume of dissolution medium was 3 ml and the amount of microspheres 100 mg. The release timolol was analysed using reverse phase HPLC at 294 nm.

| release of timolol from silicone microspheres after 1 hour ([3]; 2 wt % drug loading) [µg] | release relative to absence of the pH-adjusting agent ([3]; 2 wt % timolol, 1 wt % Tris) | effect on release rate of adding disodium phosphate ([3]; 2 wt % timolol, 1 wt % disodium phosphate) | release of timolol from silicone microspheres after 1 hour ([3]; 20 wt % drug loading) [µg] | release relative to absence of the pH-adjusting agent ([3]; 20 wt % timolol, 10 wt % Tris) | relationship between the release of timolol and the square root of the time elapsed ([3]; pH 7.4 phosphate buffer, 37° C.) | release of timolol after 1 hour ([3]; timolol and disodium phosphate spray dried together) [µg] | SMILES | rates of propranolol release, effect of osmotic pressure (138 mOsm to 950 mOsm at pH 7.4) | rates of propranolol release, effect of osmotic pressure (295 mOsm to 960 mOsm at pH=4.6) | release profile and rate of propranolol release, effect of ionic strength (ionic strength 0.15 to 0.3) | drug release rate, effect of the surrounding pH (pH 1.6, 4.6, 7.3, 9.4) | solubility (physchem) [mg/mL] | dissolution rate, pH 7.3 versus pH 9.4 [1] | dissolution rate ([1]; pH of dissolution medium raised from 1.6 to 7.3) | initial lag time before steady drug release [2] |
| --- | --- | --- | --- | --- | --- | --- | --- | --- | --- | --- | --- | --- | --- | --- | --- |
|  |  |  |  |  |  |  | CC(C)NCC(O)COc1cccc2ccccc12 (stereo not drawn) [propranolol, propranolol hydrochloride] | remained essentially constant | remained essentially constant | independent of the ionic strength of the dissolution medium | practically unaffected by the surrounding pH | 94 | equal | increased | possible to avoid the initial lag time |
| 27 | two times faster | did not affect the release rate | 520 | two times faster | linear relationship | 187 | CC(C)(C)NC[C@H](O)COc1nsnc1N1CCOCC1 [timolol, timolol maleate] |  |  |  |  |  |  |  |  |
